Molecules are shown by their SMILES.

What is called Ki is a dissociation constant, usually derived from enzyme kinetics or from competition with a known ligand.

One assay deals with TYK2 (Homo sapiens (Human), UniProt P29597). In words: Tyk2 activity inhibition assay (radioactive kinase assay / Caliper assay). The assay is classed as biochemical. How it is done:
Peptide substrate, [[…]], (20 μM) is prepared in reaction buffer (20 mM Hepes pH 7.5, 10 mM MgCl2, 1 mM EGTA, 0.02% Brij35, 0.02 mg/mL BSA, […], 2 mM DTT, 1% DMSO. TYK2 (Invitrogen) kinase is added, followed by compounds in DMSO. 33PATP is added to initiate the reaction in ATP at 10 μM. Kinase reaction is incubated for 120 min at room temp and reactions are spotted onto P81 ion exchange paper (Whatman #3698-915), and then washed extensively in 0.75% phosphoric acid, prior to reading the radioactivity counts. For JAK2 (Invitrogen) kinase assay the peptide substrate poly[Glu:Tyr](4:1), 0.2 mg/ml is used, in the reaction carried out the same as for TYK2.
The caliper machine employs an off chip mobility shift assay to detect phosphorylated peptide substrates from kinase assays, using microfluidics technology. The assays are carried out at ATP concentration equivalent to the ATP Km, and at 1 mM ATP. Compounds are serially diluted in DMSO then further diluted in assay buffer (25 mM HEPES, pH 7.5, 0.01% Brij-35, 0.01% Triton, 0.5 mM EGTA). 5 ul of diluted compound was added into wells first, then 10 ul of enzyme mix was added into wells, followed by 10 uL of substrate mix (peptide and ATP in 10 mM MgCl2) to start reaction. Reaction was incubated at 28° C. for 25 min and then added 25 ul stop buffer (100 mM HEPES, 0.015% Brij-35, 50 mM EDTA), followed by reading with Caliper. JAK2 at 1 nM final concentration and TYK2 at 9.75 nM are from Carna, and substrates used are ATP at 20 and 16 uM, respectively. JAK2 assay uses peptide 22 and TYK2 uses peptide 30 (Caliper), each at 3 uM.

The target of a further assay is JAK2 (Homo sapiens (Human), UniProt O60674). In words: JAK2 activity inhibition assay (radioactive kinase assay / Caliper assay). The assay is classed as biochemical. As to conditions: read-out: JAK2 Ki. The method in brief: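 Reaction ran 25 min at 28° C after adding peptide/ATP mix (10 mM MgCl2) to compound and enzyme in HEPES pH 7.5 buffer with Brij-35, Triton and EGTA. EDTA stop, then microfluidic off-chip separation quantified phosphorylated peptide.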
JAK2, sequence (O60674 whole entry): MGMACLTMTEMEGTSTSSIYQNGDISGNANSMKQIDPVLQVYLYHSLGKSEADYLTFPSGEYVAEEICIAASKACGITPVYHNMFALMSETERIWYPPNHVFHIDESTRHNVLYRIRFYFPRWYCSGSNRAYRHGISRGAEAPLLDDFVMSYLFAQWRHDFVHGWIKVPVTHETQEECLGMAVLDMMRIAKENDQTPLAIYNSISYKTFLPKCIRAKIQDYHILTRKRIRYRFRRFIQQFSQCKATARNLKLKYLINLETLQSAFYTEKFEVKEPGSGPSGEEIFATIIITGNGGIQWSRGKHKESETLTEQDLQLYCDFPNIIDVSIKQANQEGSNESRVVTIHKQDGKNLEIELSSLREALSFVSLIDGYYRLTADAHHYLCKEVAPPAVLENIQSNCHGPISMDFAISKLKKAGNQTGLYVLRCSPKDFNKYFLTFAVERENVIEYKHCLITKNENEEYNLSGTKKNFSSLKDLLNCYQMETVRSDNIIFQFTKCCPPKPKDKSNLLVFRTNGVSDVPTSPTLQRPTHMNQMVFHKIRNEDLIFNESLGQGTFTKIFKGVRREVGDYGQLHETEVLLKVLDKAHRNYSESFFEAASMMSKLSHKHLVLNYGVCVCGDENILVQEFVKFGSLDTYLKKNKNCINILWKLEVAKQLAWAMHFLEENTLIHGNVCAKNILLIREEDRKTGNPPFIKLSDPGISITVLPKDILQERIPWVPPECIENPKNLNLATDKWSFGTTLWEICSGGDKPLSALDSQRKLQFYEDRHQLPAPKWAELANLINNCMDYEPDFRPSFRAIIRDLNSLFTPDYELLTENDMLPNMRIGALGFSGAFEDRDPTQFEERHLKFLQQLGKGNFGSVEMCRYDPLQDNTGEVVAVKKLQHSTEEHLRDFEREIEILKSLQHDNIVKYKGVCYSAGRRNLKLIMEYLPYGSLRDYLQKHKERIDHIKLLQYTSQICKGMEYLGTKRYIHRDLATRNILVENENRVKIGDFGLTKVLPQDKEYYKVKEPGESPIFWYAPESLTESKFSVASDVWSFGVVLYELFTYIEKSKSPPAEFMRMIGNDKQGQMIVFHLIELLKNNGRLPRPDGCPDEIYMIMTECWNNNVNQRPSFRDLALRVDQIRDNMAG

TYK2, sequence (P29597 whole entry): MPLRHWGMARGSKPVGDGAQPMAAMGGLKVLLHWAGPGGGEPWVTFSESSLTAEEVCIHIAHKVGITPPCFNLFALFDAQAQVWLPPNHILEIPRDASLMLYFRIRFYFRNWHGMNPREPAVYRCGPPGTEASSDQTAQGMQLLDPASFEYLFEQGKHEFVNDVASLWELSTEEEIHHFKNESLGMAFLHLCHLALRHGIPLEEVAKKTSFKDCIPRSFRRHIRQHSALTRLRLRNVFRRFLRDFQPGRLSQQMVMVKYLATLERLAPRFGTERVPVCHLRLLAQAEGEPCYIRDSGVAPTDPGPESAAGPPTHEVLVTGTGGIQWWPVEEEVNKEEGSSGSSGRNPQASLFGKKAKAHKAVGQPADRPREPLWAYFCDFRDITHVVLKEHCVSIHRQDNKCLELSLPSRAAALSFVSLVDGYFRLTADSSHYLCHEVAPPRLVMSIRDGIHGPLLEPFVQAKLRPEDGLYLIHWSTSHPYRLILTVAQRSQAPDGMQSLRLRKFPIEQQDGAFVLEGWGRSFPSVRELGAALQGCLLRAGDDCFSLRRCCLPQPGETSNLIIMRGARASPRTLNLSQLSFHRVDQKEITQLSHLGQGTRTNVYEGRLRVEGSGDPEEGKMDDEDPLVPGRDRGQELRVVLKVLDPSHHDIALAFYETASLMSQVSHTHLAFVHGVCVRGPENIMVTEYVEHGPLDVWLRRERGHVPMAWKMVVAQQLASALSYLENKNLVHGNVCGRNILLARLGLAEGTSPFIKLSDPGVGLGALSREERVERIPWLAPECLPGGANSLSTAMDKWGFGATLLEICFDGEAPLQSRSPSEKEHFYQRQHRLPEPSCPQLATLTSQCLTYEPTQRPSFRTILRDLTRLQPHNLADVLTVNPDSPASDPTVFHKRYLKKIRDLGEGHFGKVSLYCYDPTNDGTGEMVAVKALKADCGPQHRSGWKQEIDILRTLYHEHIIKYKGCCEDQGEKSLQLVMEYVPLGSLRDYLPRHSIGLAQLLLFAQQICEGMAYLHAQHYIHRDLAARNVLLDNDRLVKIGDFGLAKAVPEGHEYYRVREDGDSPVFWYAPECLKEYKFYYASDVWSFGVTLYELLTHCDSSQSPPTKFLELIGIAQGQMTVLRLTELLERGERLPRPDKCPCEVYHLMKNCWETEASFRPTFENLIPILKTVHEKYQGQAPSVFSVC

On to `C[C@H](O)CNC(=O)Cc1ccc(Nc2nc(-c3c(F)cccc3F)nc3c2C(=O)NC3)cc1` [Compound I-75, (S)-2-(4-((2-(2,6-difluorophenyl)-5-oxo-6,7-dihydro-5H-pyrrolo[3,4-d]pyrimidin-4-yl)amino)phenyl)-N-(2-hydroxy-propyl)acetamide], for which the results for the Ki at TYK2 and at JAK2 were less than 10 nM and 100 to 1000 nM, respectively.

`CC(C)(O)CNC(=O)Cc1ccc(Nc2nc(-c3c(F)cccc3F)nc3c2C(=O)NC3)cc1` [Compound I-76, 2-(4-((2-(2,6-difluorophenyl)-5-oxo-6,7-dihydro-5H-pyrrolo[3,4-d]pyrimidin-4-yl)amino)phenyl)-N-(2-hydroxy-2-methylpropyl)acetamide]: the results for the Ki at TYK2 and on JAK2 were less than 10 nM and 10 to 100 nM, respectively.

Regarding `C[C@@H](O)CNC(=O)Cc1ccc(Nc2nc(-c3c(F)cccc3F)nc3c2C(=O)NC3)cc1` [Compound I-77, (R)-2-(4-((2-(2,6-difluorophenyl)-5-oxo-6,7-dihydro-5H-pyrrolo[3,4-d]pyrimidin-4-yl)amino)phenyl)-N-(2-hydroxy-propyl)acetamide], the Ki was less than 10 nM on TYK2 and 100 to 1000 nM at JAK2.

Take `O=C(Cc1ccc(Nc2nc(-c3c(F)cccc3F)nc3c2C(=O)NC3)cc1)NCCO` [Compound I-79, 2-(4-((2-(2,6-difluorophenyl)-5-oxo-6,7-dihydro-5H-pyrrolo[3,4-d]pyrimidin-4-yl)amino)phenyl)-N-(2-hydroxy-ethyl)acetamide]: the values for the Ki at TYK2 and at JAK2 were less than 10 nM and 100 to 1000 nM, respectively.

For the compound `O=C(Cc1ccc(Nc2nc(-c3c(F)cccc3Cl)nc3c2C(=O)NC3)cc1)N[C@@H]1CCNC1` [Compound I-81, (R)-2-(4-((2-(2-chloro-6-fluorophenyl)-5-oxo-6,7-dihydro-5H-pyrrolo[3,4-d]pyrimidin-4-yl)amino)phenyl)-N-(pyrrolidin-3-yl)acetamide], the Ki at TYK2 was less than 10 nM; on JAK2 it was 100 to 1000 nM.

Regarding `O=C(O)Cc1ccc(Nc2nc(-c3c(F)cccc3C(F)(F)F)nc3c2C(=O)NC3)cc1` [Compound I-82, 2-(4-((2-(2-fluoro-6-(trifluoromethyl)phenyl)-5-oxo-6,7-dihydro-5H-pyrrolo[3,4-d]pyrimidin-4-yl)amino)phenyl)acetic Acid], the Ki at TYK2 was 10 to 100 nM; at JAK2 it was more than 1000 nM.

Turning to `O=C(Cc1ccc(Nc2nc(-c3c(F)cccc3C(F)(F)F)nc3c2C(=O)NC3)cc1)NC1CCNCC1` [Compound I-83, 2-(4-((2-(2-fluoro-6-(trifluoromethyl)phenyl)-5-oxo-6,7-dihydro-5H-pyrrolo[3,4-d]pyrimidin-4-yl)amino)phenyl)-N-(piperidin-4-yl)acetamide], the Ki is 10 to 100 nM at TYK2 and 100 to 1000 nM on JAK2.

For `O=C1NCc2nc(-c3c(F)cccc3F)nc(Nc3ccc(CC(=O)N4CCS(=O)(=O)CC4)cc3)c21` [Compound I-84, 2-(2,6-difluorophenyl)-4-((4-(2-(1,1-dioxidothiomorpholino)-2-oxoethyl)phenyl)amino)-6,7-dihydro-5H-pyrrolo[3,4-d]pyrimidin-5-one], the Ki at TYK2 was less than 10 nM; at JAK2, 10 to 100 nM.

As to `O=C(O)Cc1ccc(Nc2nc(-c3c(F)cncc3F)nc3c2C(=O)NC3)cc1` [Compound I-85, 2-(4-((2-(3,5-difluoropyridin-4-yl)-5-oxo-6,7-dihydro-5H-pyrrolo[3,4-d]pyrimidin-4-yl)amino)phenyl)acetic Acid], the inhibition constant Ki at TYK2 is 10 to 100 nM; on JAK2 it was more than 1000 nM.

In the case of `O=C1NCc2nc(-c3c(F)cccc3F)cc(Nc3ccc([C@H]4CCNC4=O)cn3)c21` [Compound I-91, (R)-2-(2,6-difluorophenyl)-4-((5-(2-oxopyrrolidin-3-yl)pyridin-2-yl)amino)-6,7-dihydro-5H-pyrrolo[3,4-b]pyridin-5-one], the values for the Ki at TYK2 and on JAK2 were less than 10 nM and 10 to 100 nM, respectively.

In the case of `O=C1NCc2nc(-c3c(F)cccc3F)cc(Nc3ccc([C@@H]4CCNC4=O)cn3)c21` [Compound I-92, (S)-2-(2,6-difluorophenyl)-4-((5-(2-oxopyrrolidin-3-yl)pyridin-2-yl)amino)-6,7-dihydro-5H-pyrrolo[3,4-b]pyridin-5-one], the Ki is less than 10 nM at TYK2 and 10 to 100 nM on JAK2.

`COC(=O)[C@@H]1COCCN1C(=O)Cc1ccc(Nc2nc(-c3c(F)cccc3F)nc3c2C(=O)NC3)cc1` [Compound I-111, methyl (S)-4-(2-(4-((2-(2,6-difluorophenyl)-5-oxo-6,7-dihydro-5H-pyrrolo[3,4-d]pyrimidin-4-yl)amino)phenyl)acetyl)morpholine-3-carboxylate]: the Ki at TYK2 lay within 10 to 100 nM; at JAK2, 100 to 1000 nM.

Take `O=C1NCc2nc(-c3c(F)cccc3F)nc(Nc3ccc(CC(=O)N4CCOC[C@H]4C(=O)O)cc3)c21` [Compound I-112, (S)-4-(2-(4-((2-(2,6-difluorophenyl)-5-oxo-6,7-dihydro-5H-pyrrolo[3,4-d]pyrimidin-4-yl)amino)phenyl)acetyl)morpholine-3-carboxylic Acid]: the Ki was less than 10 nM at TYK2 and 100 to 1000 nM at JAK2.

With `O=C1NCc2nc(-c3c(F)cccc3Cl)nc(Nc3ccc(C4CCNC4=O)cc3)c21` (centres unmarked) [Compound I-113, 2-(2-chloro-6-fluorophenyl)-4-((4-(2-oxopyrrolidin-3-yl)phenyl)-amino)-6,7-dihydro-5H-pyrrolo[3,4-d]pyrimidin-5-one], the figures for the Ki at TYK2 and at JAK2 were less than 10 nM and 100 to 1000 nM, respectively.

`COCCC1(c2ccc(Nc3nc(-c4c(F)cccc4F)nc4c3C(=O)NC4)cc2)CCNC1=O` (centres unmarked) [Compound I-116, 2-(2,6-difluorophenyl)-4-((4-(3-(2-methoxyethyl)-2-oxopyrrolidin-3-yl)phenyl)amino)-6,7-dihydro-5H-pyrrolo[3,4-d]pyrimidin-5-one]: the Ki at TYK2 was less than 10 nM; at JAK2, 10 to 100 nM.

For `O=C1NCc2nc(-c3c(F)cccc3F)nc(Nc3ccc([C@H]4CCN(C5CCC5)C4=O)cc3)c21` [Compound I-118, (R)-4-((4-(1-cyclobutyl-2-oxopyrrolidin-3-yl)phenyl)amino)-2-(2,6-difluorophenyl)-6,7-dihydro-5H-pyrrolo[3,4-d]pyrimidin-5-one], the figures for the Ki on TYK2 and on JAK2 were less than 10 nM and 100 to 1000 nM, respectively.

On to `O=C1NCc2nc(-c3c(F)cccc3F)nc(Nc3ccc([C@@H]4CCN(C5CCC5)C4=O)cc3)c21` [Compound I-119, (S)-4-((4-(1-cyclobutyl-2-oxopyrrolidin-3-yl)phenyl)amino)-2-(2,6-difluorophenyl)-6,7-dihydro-5H-pyrrolo[3,4-d]pyrimidin-5-one], for which the Ki at TYK2 was less than 10 nM; on JAK2, 100 to 1000 nM.

As to `CCNC(=O)C(C)(C)c1ccc(Nc2nc(-c3c(F)cccc3F)nc3c2C(=O)NC3)cc1` [Compound I-120, 2-(4-((2-(2,6-difluorophenyl)-5-oxo-6,7-dihydro-5H-pyrrolo[3,4-d]pyrimidin-4-yl)amino)phenyl)-N-ethyl-2-methylpropanamide], the Ki is less than 10 nM at TYK2 and 100 to 1000 nM at JAK2.

For the compound `O=C1NCc2nc(-c3c(F)cccc3F)nc(Nc3ccc(C4CCN(CCN5CCOCC5)C4=O)cc3)c21` (centres unmarked) [Compound I-121, 2-(2,6-difluorophenyl)-4-((4-(1-(2-morpholinoethyl)-2-oxopyrrolidin-3-yl)phenyl)amino)-6,7-dihydro-5H-pyrrolo[3,4-d]pyrimidin-5-one], the Ki was less than 10 nM on TYK2 and 100 to 1000 nM on JAK2.

Regarding `O=C1NCc2nc(-c3c(F)cccc3F)nc(Nc3ccc([C@H]4CCN(CCN5CCOCC5)C4=O)cc3)c21` [Compound I-122, (R)-2-(2,6-difluorophenyl)-4-((4-(1-(2-morpholinoethyl)-2-oxopyrrolidin-3-yl)phenyl)amino)-6,7-dihydro-5H-pyrrolo[3,4-d]pyrimidin-5-one], the Ki on TYK2 was less than 10 nM; on JAK2, 100 to 1000 nM.

With `O=C1NCc2nc(-c3c(F)cccc3F)nc(Nc3ccc([C@@H]4CCN(CCN5CCOCC5)C4=O)cc3)c21` [Compound I-123, (S)-2-(2,6-difluorophenyl)-4-((4-(1-(2-morpholinoethyl)-2-oxopyrrolidin-3-yl)phenyl)amino)-6,7-dihydro-5H-pyrrolo[3,4-d]pyrimidin-5-one], the Ki at TYK2 is less than 10 nM; at JAK2, 100 to 1000 nM.

Regarding `CC1(c2ccc(Nc3nc(-c4c(F)cccc4F)nc4c3C(=O)NC4)cc2)CCN(C2CCOCC2)C1=O` (centres unmarked) [Compound I-124, 2-(2,6-difluorophenyl)-4-((4-(3-methyl-2-oxo-1-(tetrahydro-2H-pyran-4-yl)pyrrolidin-3-yl)phenyl)amino)-6,7-dihydro-5H-pyrrolo[3,4-d]pyrimidin-5-one], the Ki at TYK2 was less than 10 nM; at JAK2, 10 to 100 nM.

(Values after US10196390B2, “TYK2 inhibitors and uses thereof” (Nimbus Lakshmi, Inc., priority 2014, dated 2019).)
